Assay results reported in article PMC12394750, “2H-1,4-Benzoxazin-3(4H)-one linked 1,2,3-triazole derivatives and their study on inducing DNA damage in tumor cells” (Frontiers in Pharmacology, 2025).

Legend:
Huh-7 cells [1] = assay: Western blot protein expression; type: cell-based, human; settings: Huh-7, 72 h (Figure 6 legend 24 h), 20 or 30 μM
Experimental: To further examine the regulatory effects of 2H-1,4-benzoxazin-3(4H)-one linked 1,2,3-triazole derivatives on protein expression, Huh-7 cells were treated with compounds c5, c14, c16, and c18 for 72 h, after which whole-cell protein lysates were collected for analysis.
FIGURE 6 Compounds c5, c14, c16, and c18 affected DNA damage and autophagy. (A–D) Huh-7 cells were treated with different concentrations of compounds c5, c14, c16, and c18 (20 or 30 μM) for 24 h. Protein expressions were analyzed by Western blot. Top: Western blot; bottom: quantitative measurements relative to ACTIN. Data were presented as means ± SEM; *P < 0.05.
Antibodies used in Western blot were as follows: caspase3, caspase9, LC3, γ-H2AX, PARP, cyclin D, cyclin E, β-catenin (all from Cell Signaling Technology, United States), and β-actin (Sigma, United States). Cells were treated with compounds (0 μM, 5 μM, 10 μM, 20 μM, or 30 μM) for 72 h, and the whole-cell proteins were collected using RIPA buffer containing protease/phosphatase inhibitor cocktail. The protein expressions were measured and analyzed using Western blot. Values were expressed as mean ± SEM. Statistical significance was assessed using a two-tailed Student’s t-test. P < 0.05 was considered statistically significant. Data were visualized using GraphPad Prism.

Huh-7 cells [2] = assay: Calcein AM/PI live/dead viability assay; type: cell-based, human; settings: Huh-7, 10, 20 or 30 μM, 24 h
Experimental: To evaluate the anti-proliferative effects of 2H-1,4-benzoxazin-3(4H)-one linked 1,2,3-triazole derivatives, live/dead cell staining was performed using Calcein AM and PI on Huh-7 cells. The cells were treated with different concentrations (10 μM, 20 μM, or 30 μM) of compounds c5, c14, c16, and c18 for 24 h. Living cells were stained green by Calcein AM, while dead cells were stained red by PI.
FIGURE 4 Compounds c5, c14, c16, and c18 increased dead cells and decreased living cells. (A–D) Huh-7 cells were treated with different concentrations of compounds c5, c14, c16, and c18 (10 μM, 20 μM, or 30 μM) for 24 h. Living and dead cells were stained with Calcein AM and PI, respectively, and then observed by confocal microscopy. Data were presented as means ± SEM; *P < 0.05.
A live and dead viability assay was performed using the Calcein/PI Live/Dead Viability Assay Kit. Cells were plated at a density of 2 × 10^3 cells per well in a 96-well plate to adhere overnight. Then, compounds were added with different concentrations for 24 h. The medium was replaced with cell culture medium containing Calcein AM and propidium iodide for 30 min at 37 °C in the dark. Cells were then observed and photographed by confocal microscopy.

Huh-7 cells [3] = assay: Autophagy staining assay (MDC probe); type: cell-based, human; settings: Huh-7, 10, 20 or 30 μM, 24 h; especially at doses lower than 30 μM
Experimental: To further evaluate the role of 2H-1,4-benzoxazin-3(4H)-one linked 1,2,3-triazole derivatives in regulating autophagy, Huh-7 cells were treated with different doses (10 μM, 20 μM, or 30 μM) of compounds c5, c14, c16, and c18 for 24 h, and the autophagosome was detected by the MDC (monodansylcadaverine) probe. MDC could specifically label autophagosomes, which will show as green, and we can directly observe them using a fluorescence microscope.
FIGURE 8 Compounds c5, c14, c16, and c18 affected autophagy. Autophagy staining in Huh-7 cells treated with compounds c5, c14, c16, and c18 (10 μM, 20 μM, or 30 μM).
Huh-7 cells were seeded in a 96-well plate at a density of 2 × 10^3 cells/well. Cells were treated with compounds at the doses of 0 μM, 5 μM, 10 μM, 20 μM, or 30 μM. After 24 h of treatment, the medium was removed, and cells were stained with monodansylcadaverine for 1 h in the dark at 37 °C. The cells were photographed with confocal microscopy.

MCF-7 (breast cancer) = assay: CCK-8 cell viability, MCF-7; type: cell-based; settings: Homo sapiens, MCF7, 72 h
Experimental: (§1) To assess the cytotoxic potential of the newly synthesized compounds c1–c20, a panel of human tumor cell lines—including Huh-7 (hepatocellular carcinoma), MCF-7 (breast cancer), and A549 (lung cancer)—was treated with each compound at a concentration of 50 μM for 72 h. Cell viability and cytotoxicity were evaluated using the CCK-8 assay.
(§2) Cells were cultured in DMEM or RPMI 1640 medium with 10% FBS and 1% penicillin/streptomycin at 37 °C and 5% CO2. A CCK-8 assay was performed with several human cancer cell lines, including A549, Huh-7, MCF-7, HCT-116, and SKOV3, according to the instructions. Cells were plated at a density of 1,000–3,000 cells per well in a 96-well plate. After 24-h incubation, cells were treated with 40 μM compounds for 48 h or 50 μM compounds for 72 h. Cell viability was measured by adding 10 μL per well of CCK-8 reagent, which was dissolved in the cell culture medium, for 1 hour. Absorbance was taken at 450 nm using a microplate reader. The IC50 values of the compounds were further determined. Cells were seeded in a 96-well plate at a density of 1 × 10^3 cells/well. After adhering overnight, cells treated with […] concentrations (10 μM, 20 μM, 40 µM, or 80 μM) were used to draw the dose–response curve, and IC50 values were calculated by GraphPad Prism software. The CCK-8 assay was performed in triplicate, and each experiment was repeated at least three times. The results were expressed as mean ± SEM, and P < 0.05 was considered statistically significant.

[4] = tested on: Huh-7 (hepatocellular carcinoma); assay: CCK-8 cell viability / IC50, Huh-7; type: cell-based, human; settings: Homo sapiens, Huh-7, 72 h; for viability at 50 µM: CCK-8; for IC50: CCK-8 dose-response
Experimental: as §1, §2

IC50 [4] [µM] | Structure (SMILES) | H2AX protein expression (Huh-7 cells [1]) | LC3 protein expression (Huh-7 cells [1]) | PARP protein expression (Huh-7 cells [1]) | cyclin D protein expression (Huh-7 cells [1]) | Dead cells (PI) in live/dead staining (Huh-7 cells [2]) | Autophagosomes (MDC probe) (Huh-7 cells [3]) | viability at 50 µM (MCF-7 (breast cancer)) [%] | viability at 50 µM [4] [%] | caspase-3 protein expression (Huh-7 cells [1])
31.87 ± 0.04 | O=C1COc2cc(NC(=O)c3cccc(-c4cn(Cc5ccc(C(F)(F)F)cc5)nn4)c3)ccc2N1 [compound c16, N-(3-oxo-3,4-dihydro-2H-benzo[b][1,4]oxazin-7-yl)-3-(1-(4-(trifluoromethyl)benzyl)-1H-1,2,3-triazol-4-yl)benzamide] | upregulation | upregulation | upregulation | downregulation | dose-dependent increase | increased | 101.6 ± 0.92 | 17.7 ± 1.27 | –
28.5 ± 0.29 | O=C1COc2cc(NC(=O)c3cccc(-c4cn(Cc5ccc(Br)cc5)nn4)c3)ccc2N1 [compound c5, 3-(1-(4-bromobenzyl)-1H-1,2,3-triazol-4-yl)-N-(3-oxo-3,4-dihydro-2H-benzo[b][1,4]oxazin-7-yl)benzamide] | upregulated | significantly induced | upregulated | downregulated | dose-dependent increase | increased | 107 ± 2.85 | 15.1 ± 0.43 | upregulated
32.6 ± 1.23 | O=C1COc2cc(NC(=O)c3cccc(-c4cn(Cc5cccc(F)c5)nn4)c3)ccc2N1 [compound c14, 3-(1-(3-fluorobenzyl)-1H-1,2,3-triazol-4-yl)-N-(3-oxo-3,4-dihydro-2H-benzo[b][1,4]oxazin-7-yl)benzamide] | upregulation | upregulation | upregulation | downregulation | dose-dependent increase | increased | 106 ± 1.48 | 18.1 ± 0.76 | –

Structure (SMILES) | IC50 [4] [µM] | H2AX protein expression (Huh-7 cells [1]) | LC3 protein expression (Huh-7 cells [1]) | PARP protein expression (Huh-7 cells [1]) | cyclin D protein expression (Huh-7 cells [1]) | Dead cells (PI) in live/dead staining (Huh-7 cells [2]) | Autophagosomes (MDC probe) (Huh-7 cells [3]) | viability at 50 µM (MCF-7 (breast cancer)) [%] | viability at 50 µM [4] [%] | caspase-3 protein expression (Huh-7 cells [1])
O=C1COc2cc(NC(=O)c3cccc(-c4cn(Cc5ccc(Cl)cc5)nn4)c3)ccc2N1 [compound c18, 3-(1-(4-chlorobenzyl)-1H-1,2,3-triazol-4-yl)-N-(3-oxo-3,4-dihydro-2H-benzo[b][1,4]oxazin-7-yl)benzamide] | 19.05 ± 0.12 | upregulation | upregulation | upregulation | downregulation | dose-dependent increase | increased | 103 ± 1.83 | 17.1 ± 0.43 | –
